The experiment deals with Reverse transcriptase protein (Human immunodeficiency virus 1, UniProt Q9WJQ1). Put plainly: In vitro Anti-HIV RT Assay. The source says:
The HIV-1 RTwt inhibition assay was implemented using the template/primer hybrid poly(A)9oligo(dT)15, digoxigenin- and biotin-labeled nucleotides, an antibody to digoxigenin which is conjugated to peroxidase (anti-DIG-POD), and the peroxidase substrate ABTS for quantifying the RT polymerase activity. The incorporation quantities of the digoxigenin- and biotin-labeled dUTP into DNA represented the activity of HIV-1 RT. The IC50 value corresponds to the concentration of the tested compound required to inhibit the incorporation of the labeled dUTP by 50%. The procedure for RT assay was performed as described in the kit (Roche) protocol
Molecule `Cc1cc(C#N)cc(C)c1Oc1nc(Nc2ccc(C#N)cc2)nc(N)c1Br` returned an IC50 of 89 nM.

The molecule `Cc1cc(C)cc(C(=O)c2cccnc2Oc2ccc(C#N)cc2)c1` [4-(3-(3,5-Dimethylbenzoyl)pyridin-2-yloxy)benzonitrile (6a1)] gave a 50% inhibitory concentration (IC50) of 150000 nM.

`Cc1ccnc2c1NC(=O)c1cccnc1N2C1CC1` [BI-RG-587]: 580 nM corresponded to half-maximal inhibition (IC50).

Source of the values: BindingDB's records for doi:10.1111/cbdd.12497 (Shandong University, 2015).
